Experiment [1] has as its system T-cell. The experiment is described as follows: IL-2 secretion from T-cells stimulated with anti-CD3 antibody alone (Biological Example 2). The following applies: Homo sapiens, T-cell; 1 μM Cbl-b inhibitor; fold change over baseline (anti-CD3/anti-CD28 stimulated T-cells without inhibitor); read-out: IL-2 secretion Anti-CD3 stimulation. The format is cell-based, human.

The test system of experiment [2] is T-cell. Kind of experiment: CD25 cell surface staining on T-cells stimulated with anti-CD3 antibody alone (Biological Example 2). The format is cell-based, human. The following applies: Homo sapiens, T-cell; 1 μM Cbl-b inhibitor; fold change over baseline (anti-CD3/anti-CD28 stimulated T-cells without inhibitor); read-out: CD25 staining Anti-CD3 stimulation.
The target in experiment [3] is Cbl-b (Homo sapiens, UniProt Q13191). The experiment is described as follows: Cbl-b inhibition assay (Cbl-b activity assay, FRET, Biological Example 1; 100 mM NaCl, 60 nM Src kinase). The class given is biochemical. The following applies: upper bound stated in text lists; read-out: IC50 values in the Cbl-b inhibition assay of Biological Example 1. A digest of the protocol: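 FRET read-out: loss of signal marks inhibition. Mix = biotin-Avi-Cbl-b (N-term), Src kinase, UbcH5B-Ub(Bodipy-FL, irreversible conjugate), streptavidin-Tb, assay buffer.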
Chain of Cbl-b (Q13191 36-427): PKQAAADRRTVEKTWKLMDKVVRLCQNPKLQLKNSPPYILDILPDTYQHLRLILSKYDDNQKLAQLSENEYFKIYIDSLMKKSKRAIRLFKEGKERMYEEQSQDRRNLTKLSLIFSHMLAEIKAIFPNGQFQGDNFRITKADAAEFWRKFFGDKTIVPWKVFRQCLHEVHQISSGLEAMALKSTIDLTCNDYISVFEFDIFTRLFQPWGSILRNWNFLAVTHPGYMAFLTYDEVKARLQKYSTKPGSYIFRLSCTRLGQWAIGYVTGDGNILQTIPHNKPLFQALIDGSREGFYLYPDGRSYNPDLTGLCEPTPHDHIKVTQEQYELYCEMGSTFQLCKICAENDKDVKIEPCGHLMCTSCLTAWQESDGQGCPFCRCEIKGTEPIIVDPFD

Experiment [4] relates to T-cell. Kind of experiment: IL-2 secretion from T-cells co-stimulated with anti-CD3 and anti-CD28 antibody (Biological Example 2). The class given is cell-based, human. The conditions noted are these: Homo sapiens, T-cell, fold change over baseline (anti-CD3/anti-CD28 stimulated T-cells without inhibitor), read-out: IL-2 secretion Anti-CD3/Anti-CD28 stimulation; for fold induction at 0.3 µM: 0.3 μM Cbl-b inhibitor; for fold induction at 1 µM: 1 μM Cbl-b inhibitor. A digest of the protocol: (§1)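 Values are fold-change over baseline: readings (IL-2 release, CD25 staining) from inhibitor-treated T-cells divided against untreated cells […]. No detailed procedure stated.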

In experiment [5] the test system is T-cell. Kind of experiment: CD25 cell surface staining on T-cells co-stimulated with anti-CD3 and anti-CD28 antibody (Biological Example 2). The class given is cell-based, human. The following applies: Homo sapiens, T-cell, fold change over baseline (anti-CD3/anti-CD28 stimulated T-cells without inhibitor), read-out: CD25 staining Anti-CD3/Anti-CD28 stimulation; for fold induction at 0.3 µM: 0.3 μM Cbl-b inhibitor; for fold induction at 1 µM: 1 μM Cbl-b inhibitor. Put shortly: as §1

Some results are limits rather than exact numbers.

`Cn1cnnc1[C@@H](F)C1(c2cccc(N3Cc4c(cc(CN5CCC(F)CC5)cc4C(F)(F)F)C3=O)c2)COC1` [Example 670a, (S)-2-(3-(3-(fluoro(4-methyl-4H-1,2,4-triazol-3-yl)methyl)oxetan-3-yl)phenyl)-6-((4-fluoropiperidin-1-yl)methyl)-4-(trifluoromethyl)isoindolin-1-one]: the fold induction at 1 µM was more than 0.201 in experiment [1], more than 1 in experiment [2], more than 7.5 in experiment [4] and 1.51 to 1.75 in experiment [5]. In addition, in experiment [3], the IC50 is not above 0.1 µM. Also, the fold induction at 0.3 µM in experiment [4] was 5 to 7.5; in experiment [5] it was 1.51 to 1.75.
With `Cn1cnnc1[C@H](F)C1(c2cccc(N3Cc4c(cc(CN5CCC(F)CC5)cc4C(F)(F)F)C3=O)c2)COC1` [Example 670b, (R)-2-(3-(3-(fluoro(4-methyl-4H-1,2,4-triazol-3-yl)methyl)oxetan-3-yl)phenyl)-6-((4-fluoropiperidin-1-yl)methyl)-4-(trifluoromethyl)isoindolin-1-one], the fold induction at 1 µM in experiment [1] was more than 0.201; in experiment [2] it was more than 1; in experiment [4] it was more than 7.5; in experiment [5], more than 1.76. The IC50 in experiment [3] was not above 0.1 µM. Besides, the fold induction at 0.3 µM is more than 7.5 in experiment [4] and more than 1.76 in experiment [5].

(Values after patent US20220324835A1 (Nurix Therapeutics, Inc., priority 2018, published 2022).)
